Like-named read-outs stand apart in the source and are kept apart here.
Experiments:
[1] = tested on: SRS-A induced constriction of the guinea pig ileum; test: Guinea Pig Ileum, In Vitro (SRS-A antagonism); type: cell-based; details: Cavia porcellus
Protocol: The guinea pig ileum bioassay system has been described by Orange and Austen, Adv. Immunol. […] A 1.5 cm segment is removed from animals weighing 300-400 g. and suspended in an organ bath containing 10 ml. of Tyrodes solution with 10^-6 M atropine sulfate and 10^-6 M pyrilamine maleate. […] The SRS-A utilized in this screen is obtained by challenging chopped lung fragments from actively sensitized guinea pigs with egg albumin, in vitro. A dose-response curve to SRS-A challenge is established for the ileum. […] The drug concentration which inhibits, by 50%, the SRS-A induced constriction of the guinea pig ileum is determined.

leukotriene E4 = test: Guinea Pig Bronchoconstriction, In Vivo (leukotriene E4 i.v. challenge, drug i.v.); set-up: species or system guinea pig (Hartley strain, male); details: 10 mg/kg i.v., maximally constrictory dose of leukotriene E4 i.v.
Protocol: Male guinea pigs (Hartley strain) weighing 300 to 450 grams are anesthetized with urethane (2 g/Kg) intraperitoneally and a polyethylene cannula is inserted into the jugular vein for intravenous drug administration. Tracheal pressure is recorded from a cannula inserted in the trachea and connected to a Statham pressure transducer. Respiration is paralyzed with succinyl choline (1.2 mg/kg, i.v.) and the animals are mechanically respirated ([…] rodent respirator) at 40 breaths/minute and 2.5 cc tidal volume. The minutes thereafter, propranolol (0.1 mg/kg, i.v.) is administered. Five minutes later, the animals are pretreated intravenously for 30 seconds (at 10 mg/kg) with test drug or control vehicle. The animals are subsequently challenged with a maximally constrictory dose of leukotriene E4 also administered intravenously. The change (cm H2 O) between pre and peak ventilatory pressure readings is averaged calculated from the following formula: [formula]

LTE4 [2] = test: Rat Skin Permeability, in Vivo (LTE4-induced wheal); details: 10 mg/kg i.v., LTE4 intradermal, 30 min, 5 animals
Protocol: In this model the ability of LTE4 to increase vascular permeability in rat skin was utilized. Anesthetized rats, pretreated for 30 minutes with an antihistamine, pyrilamine maleate, (50 mg/kg i.p.) and a serotonin antagonist, methylsergide maleate (4 mg/kg i.p.), were injected intradermally with a dose of LTE4 which gave a maximum wheal (in 0.05 ml saline). After introduction of test drug (at 10 mg/kg, i.v.) the animals were immediately treated intravenously with Evans blue dye i.v. (0.5%) in the tail vein resulting in the formation of a skin wheal. Thirty minutes later the animals were sacrificed and the skin wheal size was measured. The average response in 5 animals (4 intradermal injections per animal) treated with test compound was compared to that obtained in a similar group of control animals to determine the percent inhibition by the drug. A representative compound of the present invention, i.e., 6-(4-acetyl-3-hydroxy-2-propylphenoxy)hexanoic acid, caused a 35% reduction in skin wheal when tested at 10 mg/kg i.v.

LTE4 [3] = test: Aerosol Test (LTE4-induced bronchoconstriction, drug by inhalation); type: in vivo, guinea pig (Hartley strain, male); details: 1% (W/V) aerosol solution, five minute exposure, LTE4 i.v. challenge
Protocol: Male guinea pigs (Hartley strain) weighing 300 to 500 g are anesthetized with urethane (2 g/kg) intraperitoneally and a polyethylene cannula is inserted into the jugular vein for test compound administration. Tracheal pressure is recorded from a cannula inserted in the trachea and connected to a Statham pressure transducer. After surgical preparation of the animals, a period of time is allowed for pulmonary functions to stabilize. For testing purposes, drugs are administered according to the following protocol. Propranolol (0.1 mg/kg) is administered intravenously while the animals breathed spontaneously. Five minutes thereafter, the animals are exposed for a five minute period to a 1% (W/V) aerosol solution of test compound (adjusted to an alkaline pH where necessary for compound solubilization) or to distilled water of the appropriate pH (for control purposes). A Monaghan (Model 750) ultrasonic nebulizer is used to administer all compounds by inhalation. Aqueous solutions are prepared fresh and introduced into the chamber of the nebulizer. The output of the nebulizer is made available to the animal by directing a bias flow of aerosol through a y tube connected to the tracheal cannula. At the end of the exposure period, the animals are paralyzed with succinylcholine (1.2 mg/kg, i.v.) and mechanically respirated (Harvard rodent respirator) at 40 breaths/min and 2.5 cc tidal volume. […]

[4] = guinea pig ileum, SRS-A challenge at EC50, 37° C., Table I, read-out: In vitro SRSA Antagonism Test, Guinea Pig Ileum IC50

| IC50 [1, 4] [µM] | SMILES | also measured |
| --- | --- | --- |
|  | CCCc1c(OCC(O)COc2ccc3c(=O)cc(C(=O)O)oc3c2CCC)ccc(C(C)=O)c1O (centres unmarked) [7-[3-(4-acetyl-3-hydroxy-2-propylphenoxy)-2-hydroxypropoxy]-4-oxo-8-propyl-4 H-1-benzopyran-2-carboxylic acid, reference compound] | IC50 ([1]; read-out: IC50 (standard SRS-A antagonist)): 0.035 µM; inhibition of leukotriene E4 bronchoconstriction (leukotriene E4): 98% |
| 6 | CCCc1c(OCCOCCOCCOCCC(=O)O)ccc(C(C)=O)c1O [(CH2)2 O(CH2)2 O(CH2)2 O(CH2)2, 3-[2-[2-[2-(4-Acetyl-3-hydroxy-2-propylphenoxy)ethoxy]ethoxy]ethoxy]propanoic acid semihydrate] |  |
| 5 | CCCc1c(OCCOCCC(=O)O)ccc(C(C)=O)c1O [(CH2)2 O(CH2)2, 3-[2-(4-Acetyl-3-hydroxy-2-propylphenoxy)ethoxy]propanoic acid semihydrate] |  |
| 10 | CCCc1c(OCCC(=O)O)ccc(C(C)=O)c1O [(CH2)2, 3-(4-Acetyl-3-hydroxy-2-propylphenoxy)propanoic acid] |  |
| 1 | CCCc1c(OCCCC#CC(=O)O)ccc(C(C)=O)c1O [(CH2)3 CC, 6-(4-Acetyl-3-hydroxy-2-propylphenoxy)-2-hexynoic acid] |  |
| 10 | CCCc1c(OCCCC(=O)O)ccc(C(C)=O)c1O [(CH2)3, 4-(4-Acetyl-3-hydroxy-2-propylphenoxy)butanoic acid] |  |
| 5 | CCCc1c(OCCCCC(=O)O)ccc(C(C)=O)c1O [(CH2)4, 5-(4-Acetyl-3-hydroxy-2-propylphenoxy)pentanoic acid] |  |
| 1 | CCCc1c(OCCCCCC(=O)O)ccc(C(C)=O)c1O [(CH2)5, 6-(4-Acetyl-3-hydroxy-2-propylphenoxy)hexanoic acid] | reduction in skin wheal (LTE4 [2]): 35%; inhibition of leukotriene E4 bronchoconstriction (leukotriene E4): 73%; inhibition of the bronchoconstriction (LTE4 [3]): 36% |
| 5 | CCCc1c(OCCCCCCC(=O)O)ccc(C(C)=O)c1O [(CH2)6, 7-(4-Acetyl-3-hydroxy-2-propylphenoxy)heptanoic acid] |  |
| 5 | CCCc1c(OCCCCCCCC(=O)O)ccc(C(C)=O)c1O [(CH2)7, 8-(4-Acetyl-3-hydroxy-2-propylphenoxy)octanoic acid] |  |
| 10 | CCCc1c(OCCCCCCCCCCC(=O)O)ccc(C(C)=O)c1O [(CH2)10, 11-(4-Acetyl-3-hydroxy-2-propylphenoxy)undecanoic acid] |  |
| 1 | CCCc1c(OCC#CCCCC(=O)O)ccc(C(C)=O)c1O [CH2 CC(CH2)3, 7-(4-Acetyl-3-hydroxy-2-propylphenoxy)-5-heptynoic acid] |  |
| 10 | CCCc1c(OCC(=O)O)ccc(C(C)=O)c1O [CH2, (4-Acetyl-3-hydroxy-2-propylphenoxy)acetic acid] |  |

Source: patent US4628115A, “Substituted 4-acetyl-3-hydroxyphenoxy alkanoic acids” (Hoffmann-La Roche Inc., priority 1985, dated 1986)
